Legend:
[1] = tested on: Aspergillus flavus; format: in vivo, murine
[2] = tested on: Fusarium conidia infected murine cornea; assay: In vivo murine fungal keratitis model, neutrophil infiltration of the infected cornea; design: species or system C57BL/6 mice; settings: for neutrophil infiltration (neutrophils per 5 μm corneal section): 24 hours after infection, infected PBS or vehicle groups >200 neutrophils/section

SMILES | reduction in CFUs/eye ([1]; 72 hours after infection with Aspergillus, dosed qid for 48 hours, control approximately 15000 CFUs/eye, FIG. 3B) | Aspergillus infection evaluated by RFP expression ([1]; fluorescence micrographs of murine corneas 72 hours after infection, FIG. 3A) | neutrophil infiltration (neutrophils per 5 μm corneal section) ([2]; 0.1% w/v test group) | neutrophil infiltration (neutrophils per 5 μm corneal section) ([2]; 1% w/v test group) | neutrophil infiltration, effect in words ([2]; test groups vs infected PBS/vehicle groups, 24 hours, FIG. 2)
C[C@@H]1C/C=C/C=C/C=C/C=C/[C@H](O[C@@H]2O[C@H](C)[C@@H](O)[C@H](N)[C@@H]2O)C[C@@H]2O[C@](O)(C[C@@H](O)C[C@H]3O[C@@H]3/C=C/C(=O)O1)C[C@H](O)[C@H]2C(=O)O [natamycin] | ~50% | suppressed | – | – | –
COc1ccc(Nc2nc(-c3cccs3)nc3cn[nH]c23)cc1OC [Compound 1] | – | – | < 100 neutrophils/section | < 100 neutrophils/section | dose-dependent reduction

Source: patent US20130274216A1 (priority 2012, published 2013)
